Results on six compounds are retold here after patent US4382088A, “4,7-Dihydro-4,7-dioxi-1H-cyclohepta[b]pyridine derivatives” (Ayerst, McKenna & Harrison, Inc., priority 1981, dated 1983).

The target in data set [1] is T1, aldose reductase (Bos taurus, UniProt P16116).
T1 construct: preparation of the enzyme from bovine lens; from tissue; host or cells: bovine lens
Kind of data set: in vitro aldose reductase inhibition (modified Hayman and Kinoshita procedure, enzyme from bovine lens). It counts as biochemical. The note with it: for inhibition at 10 µM: 10^-5 molar, read-out: % Inhibition at Different Molar Concentrations (in vitro), 10^-5; for inhibition at 1 µM: 10^-6 molar, read-out: % Inhibition at Different Molar Concentrations (in vitro), 10^-6; for inhibition at 0.1 µM: 10^-7 molar, read-out: % Inhibition at Different Molar Concentrations (in vitro), 10^-7. The protocol:
In the present case the procedure of Hayman and Kinoshita is modified in that the final chromatography step is omitted in the preparation of the enzyme from bovine lens.
The following results were obtained when the foregoing listed compounds of formula I were evaluated in the above in vitro test.

The nature of data set [2]: hygroscopicity of analytical sample. It counts as physicochemical. As to conditions: analytical sample dried under reduced pressure at 140° C. The protocol:
3-(Ethoxycarbonyl)-4,7-dihydro-6-methoxy-4,7-dioxo-1H-cyclohepta[b]pyridine-1-acetic acid ethyl ester (2.5 g), described in example 5, was heated at reflux in 15% (w/v) aqueous HCl for 2 hr. The resulting precipitate was collected, washed with water and acetone, and recrystallized from water to give 1.8 g of the title compound; mp 272°-274° C.; nmr (DMSO-d6) δ3.95 (s, 3H), 5.5 (s, 2H), 7.28 & 7.75 (2d, 2H), 7.95 (s, 1H), 9.0 (1H, s); ir (Nujol*) 2900, 1700, 1565, 1265, 1165 cm^-1; uv λmax (MeOH) 347 nm (ε11,630), 306 (10,470), 266 (21,365), 249 (32,290). An analytical sample dried under reduced pressure at 140° C. was hygroscopic; Anal Calcd for C14 H11 NO7 : C, 55.09% H, 3.63% N, 4.59%; Found: C, 54.41% H, 3.60% N, 4.55%.

Data set [3] deals with aldose reductase. The note with it: Dvornik et al. 1973; Peterson et al. 1979; cited from earlier work.

For the compound `O=C(O)COc1cc2c(=O)c(C(=O)O)cn(CC(=O)O)c2ccc1=O` [Example 7 (R^3 = OCH2 COOH), 3-carboxy-6-[(carboxymethyl)oxy]-4,7-dihydro-4,7-dioxo-1H-cyclohepta[b]pyridine-1-acetic acid monohydrate], in data set [1], the inhibition at 10 µM worked out at 97%, the inhibition at 1 µM worked out at 88% and the inhibition at 0.1 µM turned out to be 31%.
Take `COc1cc2c(=O)c(C(=O)O)cn(CC(=O)O)c2ccc1=O` [Example 7 (R^3 = OCH3), 3-Carboxy-4,7-dihydro-6-methoxy-4,7-dioxo-1H-cyclohepta[b]pyridine-1-aceticAcid]: in data set [1], the inhibition at 10 µM came to 89%, the inhibition at 1 µM was determined as 79% and the inhibition at 0.1 µM was 30%. In data set [2], the hygroscopicity entry is “hygroscopic”.
As to `O=C(O)Cn1cc(C(=O)O)c(=O)c2cc(OCc3ccccc3)c(=O)ccc21` [Example 8, 6-Benzyloxy-3-carboxy-4,7-dihydro-4,7-dioxo-1H-cyclohepta[b]pyridine-1-acetic Acid], in data set [1], the inhibition at 10 µM was determined as 88%, the inhibition at 1 µM amounted to 79% and the inhibition at 0.1 µM amounted to 37%.
With `O=C1NC(=O)[C@@]2(CCOc3ccc(F)cc32)N1` [sorbinil, (S)-6-Fluoro-2,3-dihydrospiro(4H-1-benzopyran-4,4'-imidazolidine)-2',5'-dione], in data set [3], the “aldose reductase inhibition reported in the literature, in words” value was “aldose reductase inhibiting properties”.
On to `CCOC(=O)COc1cc2c(=O)c(C(=O)OCC)cn(CC(=O)OCC)c2ccc1=O` [Example 5 (R^3 = OCH2 COOC2 H5), 3-(ethoxycarbonyl)-6-[(2-ethoxy-2-oxoethyl)oxy]-4,7-dihydro-4,7-dioxo-1H-cyclohepta[b]pyridine-1-acetic acid ethyl ester], for which, in data set [1], the inhibition at 10 µM turned out to be 40%.
For the compound `O=C(O)CN1C(=O)c2cccc3cccc(c23)C1=O` [1,3-Dioxo-1H-benz[de]isoquinoline-2(3H)-acetic acid], in data set [3], the “aldose reductase inhibition reported in the literature, in words” value is listed as “effective inhibitor of aldose reductase”.
